Test results taken from ChEMBL document CHEMBL1139024, “Synthesis and evaluation of an N-acylated photoactivatable analogue of glutathione as probe for glutathione-utilizing enzymes” (Bioorg Med Chem Lett, 2006).

Test: Inhibition of glutathione S-transferase in rat liver

- IC50: 1 mM
Structure (SMILES): O=C(O)CNC(=O)[C@H](CS)NC(=O)CC[C@H](NC(=O)c1ccc(C(=O)c2ccccc2)cc1)C(=O)O
